Assay results published in the NIST ThermoML archive (doi:10.1016/j.fluid.2009.03.002).

Legend:
[1] = wn = mass fraction of the nth substance listed; details: 101 kPa, Liquid; for viscosity: Capillary tube (Ostwald / Ubbelohde) method; for mass density: Pycnometric method
[2] = relative permittivity at zero frequency (dimensionless); wn = mass fraction of the nth substance listed; details: 101 kPa, Liquid, Parallel plate capacitor
[3] = cn = amount concentration of the nth substance listed, in mol/dm3; details: 101 kPa, Liquid, Direct current cell with electrodes

OCCO [1,2-ethanediol] + CO
Details | mass density, 293.15 K [kg/m3] | mass density, 298.15 K [kg/m3] | mass density, 303.15 K [kg/m3] | relative permittivity at zero frequency, 293.15 K | relative permittivity at zero frequency, 298.15 K | relative permittivity at zero frequency, 303.15 K | viscosity, 293.15 K [mPa·s] | viscosity, 298.15 K [mPa·s] | viscosity, 303.15 K [mPa·s]
[1], w1 = 0.25 | 864.7 | 860.9 | 858.6 | – | – | – | 1.127 | 1.03 | 0.9454
[1], w1 = 0.5 | 938.3 | 933.8 | 932.1 | – | – | – | 2.269 | 2.045 | 1.81
[1], w1 = 0.75 | 1023.4 | 1019.6 | 1017.3 | – | – | – | 5.8 | 4.904 | 4.232
[2], w1 = 0.25 | – | – | – | 35.2 | 34.7 | 33.7 | – | – | –
[2], w1 = 0.5 | – | – | – | 37.3 | 36.7 | 35.6 | – | – | –
[2], w1 = 0.75 | – | – | – | 39.3 | 38.7 | 37.4 | – | – | –

CO [methanol] + OCCO
w2 = 0
Details | mass density, 293.15 K [kg/m3] | mass density, 298.15 K [kg/m3] | mass density, 303.15 K [kg/m3] | relative permittivity at zero frequency, 293.15 K | relative permittivity at zero frequency, 298.15 K | relative permittivity at zero frequency, 303.15 K | viscosity, 293.15 K [mPa·s] | viscosity, 298.15 K [mPa·s] | viscosity, 303.15 K [mPa·s]
[1] | 791 | 785.9 | 781.4 | – | – | – | 0.5814 | 0.5436 | 0.5112
[2] | – | – | – | 33.1 | 32.7 | 31.9 | – | – | –

CC(=O)[O-].[Na+] [sodium ethanoate] + CO
molar conductivity [S·m2/mol], [3]
Details | 293.15 K | 298.15 K | 303.15 K
c1 = 0.0007037 | 0.007613 | 0.00835 | 0.00893
c1 = 0.00101 | 0.007497 | 0.00824 | 0.00857
c1 = 0.00129 | – | 0.008107 | –
c1 = 0.001548 | 0.007306 | – | 0.00804
c1 = 0.001786 | 0.007275 | 0.007949 | 0.00786
c1 = 0.002007 | – | 0.007893 | 0.0078
c1 = 0.002402 | 0.007159 | 0.007788 | 0.00754
c1 = 0.00258 | 0.007131 | 0.007732 | 0.0074
c1 = 0.003188 | 0.006994 | 0.007579 | 0.00714
c1 = 0.003441 | 0.006947 | 0.007529 | 0.00696
c1 = 0.003667 | 0.006913 | 0.007475 | 0.00692
c1 = 0.004222 | 0.006825 | 0.007371 | 0.0068
c1 = 0.004764 | 0.006759 | 0.007263 | –
c1 = 0.004874 | – | – | 0.00643
c1 = 0.004976 | 0.006732 | 0.007194 | –
c1 = 0.005072 | – | – | 0.00634
c1 = 0.005529 | – | 0.007125 | –
c1 = 0.005591 | 0.006636 | – | –
c1 = 0.005649 | – | – | 0.0062
c1 = 0.005756 | 0.006636 | – | –
c1 = 0.005898 | – | 0.007044 | –
c1 = 0.005982 | – | – | 0.00612
c1 = 0.006002 | – | 0.00701 | –
c1 = 0.006253 | 0.006557 | – | –
c1 = 0.006281 | – | – | 0.00612
c1 = 0.006493 | 0.00653 | – | –

[I-].[Na+] [sodium iodide] + CO
molar conductivity [S·m2/mol], [3]
Details | 293.15 K | 298.15 K | 303.15 K
c1 = 0.0007005 | 0.008344 | 0.008814 | 0.0098
c1 = 0.001005 | 0.008236 | 0.008686 | 0.00954
c1 = 0.001541 | 0.00804 | 0.008464 | 0.009246
c1 = 0.001778 | 0.007969 | 0.008407 | 0.009148
c1 = 0.001998 | – | 0.008329 | –
c1 = 0.002202 | – | – | 0.009014
c1 = 0.002391 | 0.00784 | 0.00825 | 0.00896
c1 = 0.002569 | 0.007786 | 0.008171 | 0.008907
c1 = 0.003036 | 0.007688 | – | –
c1 = 0.003173 | – | 0.008019 | 0.00852
c1 = 0.003425 | – | 0.007956 | 0.00846
c1 = 0.003541 | 0.0076 | – | –
c1 = 0.00365 | – | 0.007907 | 0.0084
c1 = 0.003754 | 0.007556 | – | –
c1 = 0.004122 | 0.0075 | – | –
c1 = 0.004203 | – | 0.007791 | 0.00825
c1 = 0.004684 | 0.007431 | – | –
c1 = 0.004742 | – | 0.007697 | –
c1 = 0.004852 | – | – | 0.00804
c1 = 0.004954 | – | 0.007663 | –
c1 = 0.005049 | – | – | 0.008
c1 = 0.005094 | 0.007356 | – | –
c1 = 0.005504 | – | 0.007571 | –
c1 = 0.005623 | – | – | 0.00782
c1 = 0.005651 | 0.007288 | – | –
c1 = 0.006031 | – | 0.007494 | –
c1 = 0.00618 | 0.007194 | – | –
c1 = 0.006252 | – | – | 0.0076
c1 = 0.006529 | 0.00715 | – | –

N#C[S-].[Na+] [sodium thiocyanate] + CO
molar conductivity [S·m2/mol], [3]
Details | 293.15 K | 298.15 K | 303.15 K
c1 = 0.0006986 | 0.00956 | 0.01035 | 0.01085
c1 = 0.001002 | 0.009407 | 0.010245 | –
c1 = 0.001281 | – | – | 0.0106
c1 = 0.001537 | 0.009271 | 0.0101 | 0.010507
c1 = 0.001773 | 0.009192 | 0.010014 | 0.01045
c1 = 0.002195 | – | 0.009936 | 0.010314
c1 = 0.002385 | 0.008993 | 0.009871 | 0.010271
c1 = 0.002561 | 0.00895 | 0.009821 | 0.010214
c1 = 0.003164 | 0.008836 | 0.009707 | 0.01008
c1 = 0.003415 | 0.008784 | 0.009675 | 0.010014
c1 = 0.00364 | – | 0.009616 | 0.009979
c1 = 0.003842 | 0.00872 | – | –
c1 = 0.004191 | 0.008664 | 0.009507 | 0.009864
c1 = 0.004343 | 0.00868 | – | –
c1 = 0.004729 | – | 0.009414 | –
c1 = 0.004838 | 0.008578 | – | 0.009735
c1 = 0.005035 | 0.008541 | – | 0.009713
c1 = 0.005489 | – | 0.009293 | –
c1 = 0.005607 | – | – | 0.0096
c1 = 0.005662 | 0.008477 | – | –
c1 = 0.005855 | – | 0.00925 | –
c1 = 0.006014 | – | 0.009229 | –
c1 = 0.006261 | – | – | 0.009493
c1 = 0.006336 | 0.008396 | – | –
